Experiment [1] relates to HCV genotype 1a (strain H77) subgenomic replicon with NS3 resistance mutation R155K in Huh-7 cells. Nature of the experiment: HCV replicon RNA replication assay (NS3 protease variants), genotype 1a R155K. The experiment is classed as cell-based. To be noted: Hepatitis C virus, Huh-7, 72 h, read-out: R155K 1a EC50 (nM). A general note: A replicon is a self-replicating genome or part of one, used to study replication in cells.

The test system of experiment [2] is HCV genotype 1b (Con-1) subgenomic replicon with NS3 resistance mutation D168V in Huh-7 cells. Put plainly: HCV replicon RNA replication assay (NS3 protease variants), genotype 1b D168V. The experiment is classed as cell-based. To be noted: Hepatitis C virus, Huh-7, 72 h, read-out: D168V 1b EC50 (nM).

The EC50 is the concentration that produces a half-maximal response. On to `CCOc1ccc2c(O[C@@H]3C[C@H]4C(=O)N[C@]5(C(=O)NS(=O)(=O)C6(C)CC6)C[C@H]5/C=C\CCCCC[C@H](NC(=O)c5ccn(C)n5)C(=O)N4C3)cc(OC(C)C)nc2c1Cl` [Compound 1001, (2R,6S,12Z,13aS,14aR,16aS)-2-{[8-chloro-7-ethoxy-2-(propan-2-yloxy)quinolin-4-yl]oxy}-N-[(1-methylcyclopropyl)sulfonyl]-6-{[(1-methyl-1H-pyrazol-3-yl)carbonyl]amino}-5,16-dioxo-1,2,3,6,7,8,9,10,11,13a,14,15,16,16a-tetradecahydrocyclopropa[e]pyrrolo[1,2-a][1,4]diazacyclopentadecine-14a(5H)-carboxamide], for which the EC50 in experiment [1] worked out at 2.6 nM; in experiment [2] it was 0.33 nM.
As for `COc1ccc2c(O[C@@H]3C[C@H]4C(=O)N[C@]5(C(=O)NS(=O)(=O)C6CC6)C[C@H]5/C=C\CCCCC[C@H](NC(=O)c5ccn(CC(=O)N(C)C)n5)C(=O)N4C3)cc(OC(C)C)nc2c1C` [Compound 1002, (2R,6S,12Z,13aS,14aR,16aS)-N-(cyclopropylsulfonyl)-6-[({1-[2-(dimethylamino)-2-oxoethyl]-1H-pyrazol-3-yl}carbonyl)amino]-2-{[7-methoxy-8-methyl-2-(propan-2-yloxy)quinolin-4-yl]oxy}-5,16-dioxo-1,2,3,6,7,8,9,10,11,13a,14,15,16,16a-tetradecahydrocyclopropa[e]pyrrolo[1,2-a][1,4]diazacyclopentadecine-14a(5H)-carboxamide], the EC50 is 2.6 nM in experiment [1] and 3 nM in experiment [2].
Consider `COc1ccc2c(O[C@@H]3C[C@H]4C(=O)N[C@]5(C(=O)NS(=O)(=O)C6CC6)C[C@H]5/C=C\CCCCC[C@H](NC(=O)c5ccn(C)n5)C(=O)N4C3)cc(OC(C)C)nc2c1C` [Compound 1003, (2R,6S,12Z,13aS,14aR,16aS)-N-(cyclopropylsulfonyl)-2-{[7-methoxy-8-methyl-2-(propan-2-yloxy)quinolin-4-yl]oxy}-6-{[(1-methyl-1H-pyrazol-3-yl)carbonyl]amino}-5,16-dioxo-1,2,3,6,7,8,9,10,11,13a,14,15,16,16a-tetradecahydrocyclopropa[e]pyrrolo[1,2-a][1,4]diazacyclopentadecine-14a(5H)-carboxamide], for which the EC50 stood at 4.3 nM in experiment [1] and 0.29 nM in experiment [2].
On to `COc1ccc2c(O[C@@H]3C[C@H]4C(=O)N[C@]5(C(=O)NS(=O)(=O)C6(C)CC6)C[C@H]5/C=C\CCCCC[C@H](NC(=O)c5ccc(C)s5)C(=O)N4C3)cc(OC(C)C)nc2c1C` [Compound 1004, (2R,6S,12Z,13aS,14aR,16aS)-2-{[7-methoxy-8-methyl-2-(propan-2-yloxy)quinolin-4-yl]oxy}-N-[(1-methylcyclopropyl)sulfonyl]-6-{[(5-methylthiophen-2-yl)carbonyl]amino}-5,16-dioxo-1,2,3,6,7,8,9,10,11,13a,14,15,16,16a-tetradecahydrocyclopropa[e]pyrrolo[1,2-a][1,4]diazacyclopentadecine-14a(5H)-carboxamide], for which the EC50 came to 2.8 nM in experiment [1] and 0.22 nM in experiment [2].
On to `COc1ccc2c(O[C@@H]3C[C@H]4C(=O)N[C@]5(C(=O)NS(=O)(=O)C6(C)CC6)C[C@H]5/C=C\CCCCC[C@H](NC(=O)c5ccn(C)n5)C(=O)N4C3)cc(OC(C)C)nc2c1OC` [Compound 1005, (2R,6S,12Z,13aS,14aR,16aS)-2-{[7,8-dimethoxy-2-(propan-2-yloxy)quinolin-4-yl]oxy}-N-[(1-methylcyclopropyl)sulfonyl]-6-{[(1-methyl-1H-pyrazol-3-yl)carbonyl]amino}-5,16-dioxo-1,2,3,6,7,8,9,10,11,13a,14,15,16,16a-tetradecahydrocyclopropa[e]pyrrolo[1,2-a][1,4]diazacyclopentadecine-14a(5H)-carboxamide], for which the EC50 was determined as 2.5 nM in experiment [1] and 2 nM in experiment [2].
For `COCCn1ccc(C(=O)N[C@H]2CCCCC/C=C\[C@@H]3C[C@@]3(C(=O)NS(=O)(=O)C3CC3)NC(=O)[C@@H]3C[C@@H](Oc4cc(OC(C)C)nc5c(C)c(OC)ccc45)CN3C2=O)n1` [Compound 1006, (2R,6S,12Z,13aS,14aR,16aS)-N-(cyclopropylsulfonyl)-6-({[1-(2-methoxyethyl)-1H-pyrazol-3-yl]carbonyl}amino)-2-{[7-methoxy-8-methyl-2-(propan-2-yloxy)quinolin-4-yl]oxy}-5,16-dioxo-1,2,3,6,7,8,9,10,11,13a,14,15,16,16a-tetradecahydrocyclopropa[e]pyrrolo[1,2-a][1,4]diazacyclopentadecine-14a(5H)-carboxamide] the same measures were 7 nM and 0.33 nM.
On to `COc1ccc2c(O[C@@H]3C[C@H]4C(=O)N[C@]5(C(=O)NS(=O)(=O)C6CC6)C[C@H]5/C=C\CCCCC[C@H](NC(=O)c5ccc(C)s5)C(=O)N4C3)cc(OC(C)C)nc2c1C` [Compound 1007, (2R,6S,12Z,13aS,14aR,16aS)-N-(cyclopropylsulfonyl)-2-{[7-methoxy-8-methyl-2-(propan-2-yloxy)quinolin-4-yl]oxy}-6-{[(5-methylthiophen-2-yl)carbonyl]amino}-5,16-dioxo-1,2,3,6,7,8,9,10,11,13a,14,15,16,16a-tetradecahydrocyclopropa[e]pyrrolo[1,2-a][1,4]diazacyclopentadecine-14a(5H)-carboxamide], for which, in experiment [2], the EC50 came out at 0.25 nM.
Consider `CC(C)Oc1cc(O[C@@H]2C[C@H]3C(=O)N[C@]4(C(=O)NS(=O)(=O)C5(C)CC5)C[C@H]4/C=C\CCCCC[C@H](NC(=O)c4ccn(C)n4)C(=O)N3C2)c2ccc(F)c(F)c2n1` [Compound 1008, (2R,6S,12Z,13aS,14aR,16aS)-2-{[7,8-difluoro-2-(propan-2-yloxy)quinolin-4-yl]oxy}-N-[(1-methylcyclopropyl)sulfonyl]-6-{[(1-methyl-1H-pyrazol-3-yl)carbonyl]amino}-5,16-dioxo-1,2,3,6,7,8,9,10,11,13a,14,15,16,16a-tetradecahydrocyclopropa[e]pyrrolo[1,2-a][1,4]diazacyclopentadecine-14a(5H)-carboxamide], for which the EC50 in experiment [1] was 2.9 nM; in experiment [2], 0.35 nM.
With `COc1ccc2c(O[C@@H]3C[C@H]4C(=O)N[C@]5(C(=O)NS(=O)(=O)C6(C)CC6)C[C@H]5/C=C\CCCCC[C@H](NC(=O)c5cc[nH]n5)C(=O)N4C3)cc(OC(C)C)nc2c1C` [Compound 1009, (2R,6S,12Z,13aS,14aR,16aS)-2-{[7-methoxy-8-methyl-2-(propan-2-yloxy)quinolin-4-yl]oxy}-N-[(1-methylcyclopropyl)sulfonyl]-5,16-dioxo-6-[(1H-pyrazol-3-ylcarbonyl)amino]-1,2,3,6,7,8,9,10,11,13a,14,15,16,16a-tetradecahydrocyclopropa[e]pyrrolo[1,2-a][1,4]diazacyclopentadecine-14a(5H)-carboxamide], the EC50 in experiment [1] was found to be 1.9 nM; in experiment [2] it was 0.49 nM.
Consider `COc1c(Cl)ccc2c(O[C@@H]3C[C@H]4C(=O)N[C@]5(C(=O)NS(=O)(=O)C6(C)CC6)C[C@H]5/C=C\CCCCC[C@H](NC(=O)c5ccn(C)n5)C(=O)N4C3)cc(OC(C)C)nc12` [Compound 1010, (2R,6S,12Z,13aS,14aR,16aS)-2-{[7-chloro-8-methoxy-2-(propan-2-yloxy)quinolin-4-yl]oxy}-N-[(1-methylcyclopropyl)sulfonyl]-6-{[(1-methyl-1H-pyrazol-3-yl)carbonyl]amino}-5,16-dioxo-1,2,3,6,7,8,9,10,11,13a,14,15,16,16a-tetradecahydrocyclopropa[e]pyrrolo[1,2-a][1,4]diazacyclopentadecine-14a(5H)-carboxamide], for which the EC50 in experiment [1] is 7 nM; in experiment [2], 0.33 nM.
Take `COc1c(Cl)ccc2c(O[C@@H]3C[C@H]4C(=O)N[C@]5(C(=O)NS(=O)(=O)C6(C)CC6)C[C@H]5/C=C\CCCCC[C@H](NC(=O)c5cnn(C)n5)C(=O)N4C3)cc(OC(C)C)nc12` [Compound 1011, (2R,6S,12Z,13aS,14aR,16aS)-2-{[7-chloro-8-methoxy-2-(propan-2-yloxy)quinolin-4-yl]oxy}-N-[(1-methylcyclopropyl)sulfonyl]-6-{[(2-methyl-2H-1,2,3-triazol-4-yl)carbonyl]amino}-5,16-dioxo-1,2,3,6,7,8,9,10,11,13a,14,15,16,16a-tetradecahydrocyclopropa[e]pyrrolo[1,2-a][1,4]diazacyclopentadecine-14a(5H)-carboxamide]: the results for the EC50 in experiment [1] and in experiment [2] were 8.4 nM and 0.63 nM, respectively.
In the same order, the values of `COc1ccc2c(O[C@@H]3C[C@H]4C(=O)N[C@]5(C(=O)NS(=O)(=O)C6(C)CC6)C[C@H]5/C=C\CCCCC[C@H](NC(=O)c5ccc(C)s5)C(=O)N4C3)cc(OC3CC3)nc2c1C` [Compound 1012, (2R,6S,12Z,13aS,14aR,16aS)-2-{[2-(cyclopropyloxy)-7-methoxy-8-methylquinolin-4-yl]oxy}-N-[(1-methylcyclopropyl)sulfonyl]-6-{[(5-methylthiophen-2-yl)carbonyl]amino}-5,16-dioxo-1,2,3,6,7,8,9,10,11,13a,14,15,16,16a-tetradecahydrocyclopropa[e]pyrrolo[1,2-a][1,4]diazacyclopentadecine-14a(5H)-carboxamide] are 5.6 nM and 0.26 nM.
Regarding `COc1ccc2c(O[C@@H]3C[C@H]4C(=O)N[C@]5(C(=O)NS(=O)(=O)C6CC6)C[C@H]5/C=C\CCCCC[C@H](NC(=O)c5cc[nH]n5)C(=O)N4C3)cc(OC(C)C)nc2c1C` [Compound 1016, (2R,6S,12Z,13aS,14aR,16aS)-N-(cyclopropylsulfonyl)-2-{[7-methoxy-8-methyl-2-(propan-2-yloxy)quinolin-4-yl]oxy}-5,16-dioxo-6-[(1H-pyrazol-3-ylcarbonyl)amino]-1,2,3,6,7,8,9,10,11,13a,14,15,16,16a-tetradecahydrocyclopropa[e]pyrrolo[1,2-a][1,4]diazacyclopentadecine-14a(5H)-carboxamide], the concentration for a half-maximal effect (EC50) in experiment [2] was 0.92 nM.

The values are drawn from US20110294778A1, “HEPATITIS C INHIBITOR COMPOUNDS” (priority 2009, published 2011).
